From patent US20220264878A1, “HERBICIDAL COMPOSITION CONTAINING R-TYPE PYRIDYLOXY CARBOXYLIC ACID DERIVATIVE AND USE THEREOF” (Qingdao Kingagroot Chemical Compound Co., Ltd., priority 2019, published 2022)
Like-named read-outs stand apart in the source and are kept apart here.

Legend:
Experiment in all cases: Post-emergence foliage spray, pot culture, fresh weight inhibition (Tables 151-206; 20 days)
Format in all cases: in vivo
Capsella bursa-pastoris = conditions: Capsella bursa-pastoris, 480 h, read-out: Control effect (%) of A applied alone in corresponding dose
How it was run: (§1)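 Pre-germinated seeds (25° C soak 6 h, 28° C dark) grown in pots, thinned to 15 per pot; foliage-sprayed at 4~5-leaf (grasses) or 5~6-leaf (broadleaf) stage, 450 kg/ha spray volume, 0.3 MPa. Agents in acetone diluted with 0.1% Tween-80 water; solvent blank control. Above-ground fresh weight weighed, dead weeds scored zero.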

Amaranthus retroflexus = system: Amaranthus retroflexus
How it was run: as §1

Sinapis arvensis = system: Sinapis arvensis
How it was run: (§2)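 Field-collected weeds grown in pots in a greenhouse (20-30° C., natural light, 57-72% RH), 15 per pot, 3 pots × 4 replicates. Single foliar spray at 4-5 leaves (grasses) or 5-6 leaves (broadleaf) with acetone/0.1% Tween-80 dilutions at 450 kg/ha, 0.3 MPa. Above-ground fresh weight inhibition versus solvent blank at 20 days.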

Eleusine indica = system: Eleusine indica
How it was run: as §2

Digitaria sanguinalis = conditions: Digitaria sanguinalis, 480 h, read-out: Control effect (%) of A applied alone in corresponding dose
How it was run: as §2

Alopecurus japonicus = system: Alopecurus japonicus
How it was run: as §2

[1] = A alone 75 g a.i./ha, 20 days after treatment
[2] = A alone 150 g a.i./ha, 20 days after treatment

Compound: C[C@@H](Oc1nc(F)c(Cl)c(N)c1Cl)C(=O)OCC1CCCO1 (stereo partly drawn) [Compound A2]
- pest or weed control at 75 g/ha (Capsella bursa-pastoris; [1]): 44.2%
- pest or weed control at 150 g/ha (Capsella bursa-pastoris; [2]): 65%
- Control effect (%) of A applied alone in corresponding dose (Amaranthus retroflexus; [1]): 25.7%
- Control effect (%) of A applied alone in corresponding dose (Amaranthus retroflexus; [2]): 51.8%
- Control effect (%) of A applied alone in corresponding dose (Sinapis arvensis; [1]): 37.9%
- Control effect (%) of A applied alone in corresponding dose (Sinapis arvensis; [2]): 60.4%
- Control effect (%) of A applied alone in corresponding dose (Eleusine indica; [1]): 35.7%
- Control effect (%) of A applied alone in corresponding dose (Eleusine indica; [2]): 63.3%
- pest or weed control at 75 g/ha (Digitaria sanguinalis; [1]): 19.4%
- pest or weed control at 150 g/ha (Digitaria sanguinalis; [2]): 51.6%
- Control effect (%) of A applied alone in corresponding dose (Alopecurus japonicus; [1]): 24.4%
- Control effect (%) of A applied alone in corresponding dose (Alopecurus japonicus; [2]): 44.5%

Compound: C[C@@H](Oc1nc(F)c(Cl)c(N)c1Cl)C(=O)O [Compound A1]
- pest or weed control at 75 g/ha (Capsella bursa-pastoris; A 75 g a.i./ha, 20 days): 56.5%
- pest or weed control at 150 g/ha (Capsella bursa-pastoris; A 150 g a.i./ha, 20 days): 82.4%
- Control effect (%) of A applied alone in corresponding dose (Amaranthus retroflexus; A 75 g a.i./ha, 20 days): 35.4%
- Control effect (%) of A applied alone in corresponding dose (Amaranthus retroflexus; A 150 g a.i./ha, 20 days): 71.7%
- Control effect (%) of A applied alone in corresponding dose (Sinapis arvensis; A 75 g a.i./ha, 20 days): 50.4%
- Control effect (%) of A applied alone in corresponding dose (Sinapis arvensis; A 150 g a.i./ha, 20 days): 79.9%
- Control effect (%) of A applied alone in corresponding dose (Eleusine indica; A 75 g a.i./ha, 20 days): 46.9%
- Control effect (%) of A applied alone in corresponding dose (Eleusine indica; A 150 g a.i./ha, 20 days): 81.2%
- pest or weed control at 75 g/ha (Digitaria sanguinalis; A 75 g a.i./ha, 20 days): 25.9%
- pest or weed control at 150 g/ha (Digitaria sanguinalis; A 150 g a.i./ha, 20 days): 69.1%
- Control effect (%) of A applied alone in corresponding dose (Alopecurus japonicus; A 75 g a.i./ha, 20 days): 31.3%
- Control effect (%) of A applied alone in corresponding dose (Alopecurus japonicus; A 150 g a.i./ha, 20 days): 57.6%
